From PubChem BioAssay (NCI)
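A five-concentration, 48-hour dose response in 96-well plates underlies each endpoint, interpolated linearly between surrounding concentrations. TGI marks complete inhibition of growth.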

How the values were obtained:
Experiment in all cases: NCI-60 cell line screen, 48 h
SW-620 colon = test system: SW-620 colon
KM12 colon = test system: KM12 colon
SF-295 CNS = test system: SF-295 CNS
786-0 renal = test system: 786-0 renal
A498 renal = test system: A498 renal
UACC-257 melanoma = test system: UACC-257 melanoma
HOP-92 NSCLC = test system: HOP-92 NSCLC
HCT-116 colon = test system: HCT-116 colon
MCF7 breast = test system: MCF7 breast
SN12C renal = test system: SN12C renal
OVCAR-3 ovarian = test system: OVCAR-3 ovarian
A549 NSCLC = test system: A549 NSCLC
U251 CNS = test system: U251 CNS
COLO 205 colon = test system: COLO 205 colon
HL-60(TB) leukemia = test system: HL-60(TB) leukemia
OVCAR-5 ovarian = test system: OVCAR-5 ovarian
UACC-62 melanoma = test system: UACC-62 melanoma
SK-MEL-5 melanoma = test system: SK-MEL-5 melanoma
MALME-3M melanoma = test system: MALME-3M melanoma
ACHN renal = test system: ACHN renal
HCT-15 colon = test system: HCT-15 colon
HS 578T breast = test system: HS 578T breast
HOP-62 NSCLC = test system: HOP-62 NSCLC
CAKI-1 renal = test system: CAKI-1 renal
SNB-75 CNS = test system: SNB-75 CNS
HT29 colon = test system: HT29 colon
RXF 393 renal = test system: RXF 393 renal
NCI-H226 lung = test system: NCI-H226 lung
NCI/ADR-RES ovarian = test system: NCI/ADR-RES ovarian
TK-10 renal = test system: TK-10 renal
NCI-H522 lung = test system: NCI-H522 lung
EKVX NSCLC = test system: EKVX NSCLC
BT-549 breast = test system: BT-549 breast
SK-OV-3 ovarian = test system: SK-OV-3 ovarian
NCI-H460 lung = test system: NCI-H460 lung
M14 melanoma = test system: M14 melanoma
OVCAR-8 ovarian = test system: OVCAR-8 ovarian
HCC-2998 colon = test system: HCC-2998 colon
SF-539 CNS = test system: SF-539 CNS
UO-31 renal = test system: UO-31 renal
SR leukemia = test system: SR leukemia
K-562 leukemia = test system: K-562 leukemia
NCI-H23 lung = test system: NCI-H23 lung
MDA-N = test system: MDA-N
MOLT-4 leukemia = test system: MOLT-4 leukemia
MDA-MB-231 breast = test system: MDA-MB-231 breast
OVCAR-4 ovarian = test system: OVCAR-4 ovarian
IGROV1 ovarian = test system: IGROV1 ovarian
DU-145 prostate = test system: DU-145 prostate
SNB-19 CNS = test system: SNB-19 CNS
PC-3 prostate = test system: PC-3 prostate
MDA-MB-435 = test system: MDA-MB-435
CCRF-CEM leukemia = test system: CCRF-CEM leukemia
SK-MEL-2 melanoma = test system: SK-MEL-2 melanoma
SF-268 CNS = test system: SF-268 CNS
LOX IMVI melanoma = test system: LOX IMVI melanoma
T-47D breast = test system: T-47D breast
RPMI-8226 leukemia = test system: RPMI-8226 leukemia
SK-MEL-28 melanoma = test system: SK-MEL-28 melanoma

Which results are given for CN(/N=C/c1ccnc2ccccc12)c1ccc(Cl)cc1[N+](=O)[O-]?
TGI (SW-620 colon): > 100 µM; TGI (KM12 colon): > 100 µM; TGI (SF-295 CNS): > 100 µM; TGI (786-0 renal): > 100 µM; TGI (A498 renal): > 100 µM; TGI (UACC-257 melanoma): > 100 µM; TGI (HOP-92 NSCLC): > 100 µM; TGI (HCT-116 colon): > 100 µM; TGI (MCF7 breast): > 100 µM; TGI (SN12C renal): > 100 µM; TGI (OVCAR-3 ovarian): > 100 µM; TGI (A549 NSCLC): > 100 µM; TGI (U251 CNS): > 100 µM; TGI (COLO 205 colon): > 100 µM; TGI (HL-60(TB) leukemia): > 100 µM; TGI (OVCAR-5 ovarian): > 100 µM; TGI (UACC-62 melanoma): > 100 µM; TGI (SK-MEL-5 melanoma): > 100 µM; TGI (MALME-3M melanoma): > 100 µM; TGI (ACHN renal): > 100 µM; TGI (HCT-15 colon): > 100 µM; TGI (HS 578T breast): 52.2 µM; TGI (HOP-62 NSCLC): > 100 µM; TGI (CAKI-1 renal): > 100 µM; TGI (SNB-75 CNS): > 100 µM; TGI (HT29 colon): > 100 µM; TGI (RXF 393 renal): > 100 µM; TGI (NCI-H226 lung): > 100 µM; TGI (NCI/ADR-RES ovarian): > 100 µM; TGI (TK-10 renal): > 100 µM; TGI (NCI-H522 lung): > 100 µM; TGI (EKVX NSCLC): > 100 µM; TGI (BT-549 breast): > 100 µM; TGI (SK-OV-3 ovarian): > 100 µM; TGI (NCI-H460 lung): > 100 µM; TGI (M14 melanoma): > 100 µM; TGI (OVCAR-8 ovarian): > 100 µM; TGI (HCC-2998 colon): > 100 µM; TGI (SF-539 CNS): > 100 µM; TGI (UO-31 renal): > 100 µM; TGI (SR leukemia): > 100 µM; TGI (K-562 leukemia): > 100 µM; TGI (NCI-H23 lung): > 100 µM; TGI (MDA-N): > 100 µM; TGI (MOLT-4 leukemia): > 100 µM; TGI (MDA-MB-231 breast): > 100 µM; TGI (OVCAR-4 ovarian): 69.1 µM; TGI (IGROV1 ovarian): > 100 µM; TGI (DU-145 prostate): > 100 µM; TGI (SNB-19 CNS): > 100 µM; TGI (PC-3 prostate): > 100 µM; TGI (MDA-MB-435): > 100 µM; TGI (CCRF-CEM leukemia): > 100 µM; TGI (SK-MEL-2 melanoma): > 100 µM; TGI (SF-268 CNS): > 100 µM

For O=C(O)CCC(=O)c1ccc(Cl)cc1, which TGI (SW-620 colon) is on record?
The TGI was greater than 100 µM.

And the TGI (KM12 colon)?
Its TGI is greater than 100 µM.

What about the TGI (SF-295 CNS) of the same compound?
Its TGI is greater than 100 µM.

What about the TGI (786-0 renal) of the same compound?
The TGI was greater than 100 µM.

And the TGI (HOP-92 NSCLC)?
The TGI was greater than 100 µM.

What about the TGI (LOX IMVI melanoma) of the same compound?
Its TGI is greater than 100 µM.

What about the TGI (HCT-116 colon) of the same compound?
The TGI was greater than 100 µM.

What about the TGI (SN12C renal) of the same compound?
The TGI was greater than 100 µM.

And the TGI (OVCAR-3 ovarian)?
The TGI was greater than 100 µM.

And the TGI (A549 NSCLC)?
The TGI was greater than 100 µM.

What about the TGI (COLO 205 colon) of the same compound?
The TGI was greater than 100 µM.

And the TGI (HL-60(TB) leukemia)?
Its TGI is greater than 100 µM.

What about the TGI (OVCAR-5 ovarian) of the same compound?
Its TGI is greater than 100 µM.

What about the TGI (SK-MEL-5 melanoma) of the same compound?
The TGI was greater than 100 µM.

And the TGI (HOP-62 NSCLC)?
Its TGI is greater than 100 µM.

What about the TGI (CAKI-1 renal) of the same compound?
The TGI was greater than 100 µM.

And the TGI (SNB-75 CNS)?
The TGI was greater than 100 µM.

And the TGI (HT29 colon)?
The TGI was greater than 100 µM.

What about the TGI (T-47D breast) of the same compound?
The TGI was greater than 100 µM.

What about the TGI (RXF 393 renal) of the same compound?
The TGI was greater than 100 µM.

What about the TGI (NCI-H226 lung) of the same compound?
Its TGI is greater than 100 µM.

And the TGI (EKVX NSCLC)?
The TGI was greater than 100 µM.

And the TGI (RPMI-8226 leukemia)?
Its TGI is greater than 100 µM.

And the TGI (SK-OV-3 ovarian)?
Its TGI is greater than 100 µM.

And the TGI (M14 melanoma)?
The TGI was greater than 100 µM.

What about the TGI (OVCAR-8 ovarian) of the same compound?
The TGI was greater than 100 µM.

And the TGI (SK-MEL-28 melanoma)?
The TGI was greater than 100 µM.

What about the TGI (SF-539 CNS) of the same compound?
Its TGI is greater than 100 µM.

And the TGI (UO-31 renal)?
Its TGI is greater than 100 µM.

And the TGI (SR leukemia)?
Its TGI is greater than 100 µM.

And the TGI (K-562 leukemia)?
Its TGI is greater than 100 µM.

And the TGI (MDA-N)?
Its TGI is greater than 100 µM.

And the TGI (MOLT-4 leukemia)?
The TGI was greater than 100 µM.

What about the TGI (OVCAR-4 ovarian) of the same compound?
Its TGI is greater than 100 µM.

What about the TGI (IGROV1 ovarian) of the same compound?
The TGI was greater than 100 µM.

And the TGI (DU-145 prostate)?
Its TGI is greater than 100 µM.

And the TGI (SNB-19 CNS)?
The TGI was greater than 100 µM.

What about the TGI (MDA-MB-435) of the same compound?
The TGI was greater than 100 µM.

What about the TGI (CCRF-CEM leukemia) of the same compound?
The TGI was greater than 100 µM.
